Experimental data: ChEMBL document CHEMBL1144808 (J Med Chem, 2008)
Converted amounts (≈) assume the structure as drawn.

Assays:
Mus musculus [1] = experiment: Toxicity against human MIAPaCa2 cells xenografted mouse assessed as survival time at 30 mg/kg, ip administered daily once for 5 days a week for 15 days; assay type: organism-based, MIA PaCa-2; design: dose 30 mg/kg, route intraperitoneal; details: in vivo
MIA PaCa-2 [2] = experiment: Antitumor activity against human MIAPaCa2 cells xenografted mouse assessed as tumor growth inhibition at 30 mg/kg, ip administered once daily for 5 days a week for 15 days; assay type: functional; details: MIA PaCa-2, ip, route intraperitoneal
[3] = Aqueous solubility at 100 mg at pH 7.4; assay type: physicochemical
[4] = Toxicity against human MIAPaCa2-RFP cells xenografted mouse; assay type: organism-based
[5] = Metabolic stability in mouse liver microsomes at 5 uM after 30 mins; assay type: ADME, Microsome; details: read-out: Stability
HT-29 [6] = experiment: Ratio of IC50 for human HT29 cells under normoxic condition to hypoxic condition by clonogenic assay; assay type: functional
NCI-H460 [7] = experiment: Cytotoxicity against human H460 cells under hypoxic condition after 2 hrs by clonogenic assay; assay type: functional; details: NCI-H460, 2 h
NCI-H460 [8] = experiment: Ratio of IC50 for human H460 cells under normoxic condition to hypoxic condition by clonogenic assay; assay type: functional
NCI-H460 [9] = experiment: Cytotoxicity against human H460 cells under normoxic condition after 2 hrs by Alamar blue staining assay; assay type: functional, cell-based; details: NCI-H460, 2 h
NCI-H460 [10] = experiment: Ratio of IC50 for human H460 cells under normoxic condition to hypoxic condition by Alamar blue staining assay; assay type: functional
NCI-H460 [11] = experiment: Cytotoxicity against human H460 cells under normoxic condition after 2 hrs by clonogenic assay; assay type: functional; details: NCI-H460, 2 h
HT-29 [12] = experiment: Cytotoxicity against human HT29 cells under hypoxic condition after 2 hrs by clonogenic assay; assay type: functional; details: HT-29, 2 h
NCI-H460 [13] = experiment: Cytotoxicity against human H460 cells under hypoxic condition after 2 hrs by Alamar blue staining assay; assay type: functional, cell-based; details: NCI-H460, 2 h
HT-29 [14] = experiment: Cytotoxicity against human HT29 cells under normoxic condition after 2 hrs by clonogenic assay; assay type: functional; details: HT-29, 2 h
MIA PaCa-2 [15] = experiment: Antitumor activity against human MIAPaCa2 cells xenografted mouse assessed as tumor growth inhibition at 200 mg/kg, ip administered weekly once for 3 weeks; assay type: functional; details: MIA PaCa-2, ip, 504 h, route intraperitoneal
Mus musculus [16] = experiment: Toxicity against human MIAPaCa2 cells xenografted mouse assessed as survival time at 200 mg/kg, ip administered weekly once for 3 weeks; assay type: organism-based, MIA PaCa-2; design: dose 200 mg/kg, route intraperitoneal; details: in vivo, 504 h
Mus musculus [17] = experiment: Toxicity against human MIAPaCa2 cells xenografted mouse assessed as survival time at 6 mg/kg, ip administered once daily for 5 days a week for 15 days; assay type: organism-based, MIA PaCa-2; design: dose 6 mg/kg, route intraperitoneal; details: in vivo

For Cn1c(COP(=O)(NCCBr)NCCBr)cnc1[N+](=O)[O-] [EVOFOSFAMIDE], the Survival (Mus musculus [1]) was 28 days, the inhibition in vivo at 30 mg/kg (MIA PaCa-2 [2]) was 41% and the solubility [3] was 5900 µg/mL (≈ 13.1 mM). The MTD [4] was 100 mg/kg, the remaining at 0.5 h, 5 µM [5] was 92% and the “Ratio IC50” value (HT-29 [6]) was 200. The IC90 (NCI-H460 [7]) was 0.1 µM, the “Ratio IC50” value (NCI-H460 [8]) was 300 and the IC50 (NCI-H460 [9]) was 5.1 µM. For the same compound, the “Ratio IC50” value (NCI-H460 [10]) was 270, the IC90 (NCI-H460 [11]) was 30 µM and the IC90 (HT-29 [12]) was 0.2 µM. For the same compound, the IC50 (NCI-H460 [13]) was 0.019 µM and the IC90 (HT-29 [14]) was 40 µM.

For Cn1c(COP(=O)(NCCCl)NCCCl)cnc1[N+](=O)[O-], the remaining at 0.5 h, 5 µM [5] was 90%, the IC50 (NCI-H460 [9]) was 88 µM and the “Ratio IC50” value (NCI-H460 [10]) was 420. The IC50 (NCI-H460 [13]) was 0.21 µM.

With Cn1c([N+](=O)[O-])cnc1COP(=O)(NCCBr)NCCBr the remaining at 0.5 h, 5 µM [5] was 92%, the IC50 (NCI-H460 [9]) was 46 µM and the “Ratio IC50” value (NCI-H460 [10]) was 8. The IC50 (NCI-H460 [13]) was 5.7 µM.

With Nc1ccn([C@@H]2O[C@H](CO)[C@@H](O)C2(F)F)c(=O)n1 [GEMCITABINE] the inhibition in vivo at 200 mg/kg (MIA PaCa-2 [15]) was 82% and the Survival (Mus musculus [16]) was 42 days.

Work on O=[N+]([O-])c1ccc(COP(=O)(NCCBr)NCCBr)o1 yielded a solubility [3] of 4300 µg/mL (≈ 9.88 mM), an MTD [4] of 20 mg/kg and a Survival (Mus musculus [17]) of 27 days. For the same compound, the remaining at 0.5 h, 5 µM [5] was 79%, the “Ratio IC50” value (HT-29 [6]) was 30 and the IC90 (NCI-H460 [7]) was 0.05 µM. For the same compound, the “Ratio IC50” value (NCI-H460 [8]) was 40, the IC50 (NCI-H460 [9]) was 14 µM and the “Ratio IC50” value (NCI-H460 [10]) was 170. The IC90 (NCI-H460 [11]) was 2 µM, the IC90 (HT-29 [12]) was 0.06 µM and the IC50 (NCI-H460 [13]) was 0.083 µM. It also gave an IC90 (HT-29 [14]) of 2 µM.

For Nc1n[n+]([O-])c2ccccc2[n+]1[O-] [TIRAPAZAMINE], the IC50 (NCI-H460 [9]) was greater than 100 µM, the “Ratio IC50” value (NCI-H460 [10]) was greater than 9 and the IC50 (NCI-H460 [13]) was 11 µM.

For Cn1c(COP(=O)(N(CCCl)CCCl)N(CCCl)CCCl)cnc1[N+](=O)[O-], the remaining at 0.5 h, 5 µM [5] was 0%, the IC50 (NCI-H460 [9]) was 27 µM and the “Ratio IC50” value (NCI-H460 [10]) was 230. The IC50 (NCI-H460 [13]) was 0.12 µM.

In the case of CN(CCCl)P(=O)(OCc1cnc([N+](=O)[O-])n1C)N(C)CCCl, the remaining at 0.5 h, 5 µM [5] is reported as 15%, the IC50 (NCI-H460 [9]) is reported as 14 µM and the “Ratio IC50” value (NCI-H460 [10]) is reported as 130. For the same compound, the IC50 (NCI-H460 [13]) was 0.11 µM.
